Consider four molecules from PMC8760370, “Combinatorial inhibition of BTK, PI3K-AKT and BRD4-MYC as a strategy for treatment of mantle cell lymphoma” (Molecular Biomedicine, 2022).

Read-outs that look alike come from different tables or passages of the source. Some results are limits rather than exact numbers.

For assay [1], the system named is JeKo-1 BTK C481S cells. Briefly: Cell viability assay, JeKo-1 BTK C481S. The class given is cell-based. The settings on record: Homo sapiens, JeKo-1, 48 h.
Experimental: (§2) Cells were treated with DMSO (0.1% final) or increasing concentrations of the indicated inhibitors for 48 h. 100 μL of Alamar blue (ThermoFisher Scientific) and Cell titer Glow assay reagent (Promega Cat # G9241) was added to each well, and the cells were incubated for 10 min at room temperature. Luminescence signal was measured in a VarioScan multimode reader. For Alamar Blue, fluorescence signals were read (emission at 590 nm after excitation at 560 nm). Averaged values were normalized as a percentage of DMSO (control) and analyzed by nonlinear regression then plotted for dose response using GraphPad Prism (GraphPad Software, Inc.). Experiments were performed in triplicate.
The test system of assay [2] is BTK and AKT phosphorylation. Briefly: Inhibitor washout assay, Mino cells. The settings on record: 1 h treatment, washes with PBS. The format is cell-based, human.
Experimental: The BCR pathways in the washed cells were stimulated with 10 μg/mL of goat F(ab’)2 anti-human IgM antibody, and the cells were harvested and lysed. The resulting lysates were analyzed by western blot.
Assay [3] concerns Mino cells. Briefly: Cell viability assay (alamarBlue / CellTiter-Glo), Mino. The class given is cell-based. The settings on record: Homo sapiens, 48 h, read-out: IC50, anti-proliferative activity, Mino.
Experimental: as §2
Assay [4] relates to JeKo-1 cells. Briefly: FITC Annexin V apoptosis assay, JeKo-1. The format is cell-based, human. The conditions noted are these: JeKo-1, 5 μM, 24 h.
Experimental: Jeko-1 and Mino cells were seeded at a density of 2x10^6 cells and incubated overnight. […] The labeled cells were analyzed using BD Accuri C6 Flow cytometer. Experiments were performed in duplicate.
The subject of assay [5] is Mino BTK C481S cells. Briefly: Cell viability assay, Mino BTK C481S. The conditions noted are these: Homo sapiens, 48 h. The class given is cell-based.
Experimental: as §2
In assay [6] the test system is JeKo-1 cells. Briefly: Cell viability assay (alamarBlue / CellTiter-Glo), JeKo-1. The format is cell-based. The conditions noted are these: Homo sapiens, JeKo-1, 48 h; read-out: IC50, anti-proliferative activity, JeKo-1. On the technique in general: The colour change of resazurin is a common sign of viable cells or microbes.
Experimental: as §2
The subject of assay [7] is relapsed/refractory (R/R) MCL patients. The conditions noted are these: R/R MCL patients treated with Ibrutinib; cited from earlier work.
Assay [8] deals with Mino cells. Briefly: FITC Annexin V apoptosis assay, Mino. The class given is cell-based, human. The settings on record: 5 μM, 24 h. The procedure:
Jeko-1 and Mino cells were seeded at a density of 2x10^6 cells and incubated overnight. […] Cells were harvested and washed twice with cold PBS, and then labeled with Annexin V-FITC and PI (BD Pharmingen, Cat # 556419) or Annexin APC (Thermo Fisher, Cat # A35110) according to the manufacturer’s protocol (BD Pharmingen). The labeled cells were analyzed using BD Accuri C6 Flow cytometer. Experiments were performed in duplicate.

The target in assay [9] is T1, PI3Kδ (Homo sapiens, UniProt O00329).
T1 construct: purchased ThermoFisher Scientific (contract assay)
As to the kind of experiment: Adapta kinase activity assay, PI3Kδ. The format is biochemical. The protocol: (§1) Adapta kinase activity assays were carried out by ThermoFisher Scientific (Waltham, MA) to measure IC50 of the indicated inhibitors for PI3K isoforms. Kinase activity assays were carried out by Reaction Biology (Malvern, PA) to measure IC50 of the indicated inhibitors for BTK WT and BTK C481S (Ibrutinib-resistant mutant). Alpha Screen assays were carried out by Reaction Biology (Malvern, PA) to measure IC50 of the indicated inhibitors for His-tagged BRD4 BD1 and BD2 bromodomains.

The target of assay [10] is T2, PI3Kα (Homo sapiens, UniProt P42336).
T2 construct: purchased ThermoFisher Scientific (contract assay)
As to the kind of experiment: Adapta kinase activity assay, PI3Kα. The format is biochemical. The protocol:
as §1

The target in assay [11] is T3, BTK C481S (Ibrutinib-resistant mutant) (Homo sapiens, UniProt Q06187, C481S).
T3 construct: purchased Reaction Biology (contract assay)
As to the kind of experiment: Kinase activity assay, BTK C481S. The format is biochemical.

Assay [12] addresses T4, BTK WT (Homo sapiens, UniProt Q06187).
T4 construct: purchased Reaction Biology (contract assay)
Briefly: Kinase activity assay, BTK WT. The class given is biochemical.

Assay [13] has as its target T5, PI3Kγ (Homo sapiens, UniProt P48736).
T5 construct: purchased ThermoFisher Scientific (contract assay)
As to the kind of experiment: Adapta kinase activity assay, PI3Kγ. The class given is biochemical. The protocol:
as §1

T1 sequence (O00329 whole entry): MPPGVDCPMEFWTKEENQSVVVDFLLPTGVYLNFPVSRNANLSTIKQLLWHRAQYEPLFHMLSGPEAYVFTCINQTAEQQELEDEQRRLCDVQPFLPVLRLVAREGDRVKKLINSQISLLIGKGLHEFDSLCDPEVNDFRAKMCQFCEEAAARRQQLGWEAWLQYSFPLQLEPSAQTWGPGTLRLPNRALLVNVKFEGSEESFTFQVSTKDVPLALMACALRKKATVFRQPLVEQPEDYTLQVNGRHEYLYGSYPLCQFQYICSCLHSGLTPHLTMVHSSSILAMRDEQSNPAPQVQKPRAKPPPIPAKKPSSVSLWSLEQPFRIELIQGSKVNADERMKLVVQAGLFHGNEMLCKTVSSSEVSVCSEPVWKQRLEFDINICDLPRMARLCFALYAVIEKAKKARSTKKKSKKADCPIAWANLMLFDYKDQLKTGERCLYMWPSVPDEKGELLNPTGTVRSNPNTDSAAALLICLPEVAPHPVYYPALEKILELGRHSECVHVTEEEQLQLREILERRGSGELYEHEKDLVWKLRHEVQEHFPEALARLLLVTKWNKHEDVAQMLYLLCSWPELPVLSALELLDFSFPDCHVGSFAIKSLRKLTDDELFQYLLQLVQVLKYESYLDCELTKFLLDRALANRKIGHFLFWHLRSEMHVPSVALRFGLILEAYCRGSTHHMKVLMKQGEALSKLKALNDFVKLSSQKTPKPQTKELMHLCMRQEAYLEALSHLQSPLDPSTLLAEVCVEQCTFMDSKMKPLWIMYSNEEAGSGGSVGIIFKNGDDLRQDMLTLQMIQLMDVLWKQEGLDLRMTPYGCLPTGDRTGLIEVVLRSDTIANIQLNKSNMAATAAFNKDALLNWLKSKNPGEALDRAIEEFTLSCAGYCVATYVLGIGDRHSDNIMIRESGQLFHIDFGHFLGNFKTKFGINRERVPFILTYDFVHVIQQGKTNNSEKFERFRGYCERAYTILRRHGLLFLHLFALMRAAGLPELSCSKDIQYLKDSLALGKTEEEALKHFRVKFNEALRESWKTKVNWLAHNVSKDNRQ
T1 sequence (P27986 whole entry partner): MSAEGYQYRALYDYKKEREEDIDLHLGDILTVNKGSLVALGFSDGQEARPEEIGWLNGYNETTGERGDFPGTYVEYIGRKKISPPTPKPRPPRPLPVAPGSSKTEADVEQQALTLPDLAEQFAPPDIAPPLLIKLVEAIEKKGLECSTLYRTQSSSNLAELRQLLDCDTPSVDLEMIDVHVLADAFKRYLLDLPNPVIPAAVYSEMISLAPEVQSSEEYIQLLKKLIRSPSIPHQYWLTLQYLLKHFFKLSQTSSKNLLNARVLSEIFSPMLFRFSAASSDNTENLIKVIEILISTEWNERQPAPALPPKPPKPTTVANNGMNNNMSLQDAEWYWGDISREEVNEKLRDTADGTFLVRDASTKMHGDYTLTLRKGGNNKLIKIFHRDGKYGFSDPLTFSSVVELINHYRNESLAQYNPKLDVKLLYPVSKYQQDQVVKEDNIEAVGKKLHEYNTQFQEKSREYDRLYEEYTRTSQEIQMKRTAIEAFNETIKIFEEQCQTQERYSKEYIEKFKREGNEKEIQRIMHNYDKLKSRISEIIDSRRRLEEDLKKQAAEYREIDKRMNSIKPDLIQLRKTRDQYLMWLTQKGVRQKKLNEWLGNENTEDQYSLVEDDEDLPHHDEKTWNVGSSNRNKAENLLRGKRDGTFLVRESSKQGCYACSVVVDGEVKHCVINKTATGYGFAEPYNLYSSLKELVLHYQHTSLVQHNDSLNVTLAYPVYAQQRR
T2 sequence (P42336 whole entry): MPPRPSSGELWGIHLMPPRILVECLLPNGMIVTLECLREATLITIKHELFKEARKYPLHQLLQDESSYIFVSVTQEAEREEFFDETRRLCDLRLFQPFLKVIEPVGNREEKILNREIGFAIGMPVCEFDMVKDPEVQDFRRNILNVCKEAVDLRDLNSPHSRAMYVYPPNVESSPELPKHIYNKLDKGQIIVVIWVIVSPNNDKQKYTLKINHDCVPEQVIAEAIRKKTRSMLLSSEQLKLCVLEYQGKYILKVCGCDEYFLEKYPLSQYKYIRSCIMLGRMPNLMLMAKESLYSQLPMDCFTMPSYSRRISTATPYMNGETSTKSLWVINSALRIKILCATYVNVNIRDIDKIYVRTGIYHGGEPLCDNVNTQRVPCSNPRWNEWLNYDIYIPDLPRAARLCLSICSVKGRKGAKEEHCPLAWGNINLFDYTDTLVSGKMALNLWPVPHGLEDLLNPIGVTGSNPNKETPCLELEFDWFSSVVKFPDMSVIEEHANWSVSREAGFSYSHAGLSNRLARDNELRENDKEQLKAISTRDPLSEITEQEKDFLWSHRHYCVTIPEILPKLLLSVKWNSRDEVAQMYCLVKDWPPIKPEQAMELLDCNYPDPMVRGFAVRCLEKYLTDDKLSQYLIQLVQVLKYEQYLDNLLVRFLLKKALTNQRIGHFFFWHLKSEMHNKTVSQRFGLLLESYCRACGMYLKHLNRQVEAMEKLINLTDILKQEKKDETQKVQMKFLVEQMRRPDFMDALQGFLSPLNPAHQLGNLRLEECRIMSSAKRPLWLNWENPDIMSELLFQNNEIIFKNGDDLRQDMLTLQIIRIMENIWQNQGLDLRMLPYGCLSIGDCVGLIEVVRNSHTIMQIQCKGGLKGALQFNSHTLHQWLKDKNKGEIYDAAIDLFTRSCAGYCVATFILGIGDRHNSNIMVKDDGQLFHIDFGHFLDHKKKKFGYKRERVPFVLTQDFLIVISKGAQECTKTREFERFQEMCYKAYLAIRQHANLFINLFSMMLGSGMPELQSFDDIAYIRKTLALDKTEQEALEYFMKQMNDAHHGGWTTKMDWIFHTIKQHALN
T2 sequence (P27986 whole entry partner): as the sequence (P27986 whole entry partner) above
T5 sequence (P48736 whole entry): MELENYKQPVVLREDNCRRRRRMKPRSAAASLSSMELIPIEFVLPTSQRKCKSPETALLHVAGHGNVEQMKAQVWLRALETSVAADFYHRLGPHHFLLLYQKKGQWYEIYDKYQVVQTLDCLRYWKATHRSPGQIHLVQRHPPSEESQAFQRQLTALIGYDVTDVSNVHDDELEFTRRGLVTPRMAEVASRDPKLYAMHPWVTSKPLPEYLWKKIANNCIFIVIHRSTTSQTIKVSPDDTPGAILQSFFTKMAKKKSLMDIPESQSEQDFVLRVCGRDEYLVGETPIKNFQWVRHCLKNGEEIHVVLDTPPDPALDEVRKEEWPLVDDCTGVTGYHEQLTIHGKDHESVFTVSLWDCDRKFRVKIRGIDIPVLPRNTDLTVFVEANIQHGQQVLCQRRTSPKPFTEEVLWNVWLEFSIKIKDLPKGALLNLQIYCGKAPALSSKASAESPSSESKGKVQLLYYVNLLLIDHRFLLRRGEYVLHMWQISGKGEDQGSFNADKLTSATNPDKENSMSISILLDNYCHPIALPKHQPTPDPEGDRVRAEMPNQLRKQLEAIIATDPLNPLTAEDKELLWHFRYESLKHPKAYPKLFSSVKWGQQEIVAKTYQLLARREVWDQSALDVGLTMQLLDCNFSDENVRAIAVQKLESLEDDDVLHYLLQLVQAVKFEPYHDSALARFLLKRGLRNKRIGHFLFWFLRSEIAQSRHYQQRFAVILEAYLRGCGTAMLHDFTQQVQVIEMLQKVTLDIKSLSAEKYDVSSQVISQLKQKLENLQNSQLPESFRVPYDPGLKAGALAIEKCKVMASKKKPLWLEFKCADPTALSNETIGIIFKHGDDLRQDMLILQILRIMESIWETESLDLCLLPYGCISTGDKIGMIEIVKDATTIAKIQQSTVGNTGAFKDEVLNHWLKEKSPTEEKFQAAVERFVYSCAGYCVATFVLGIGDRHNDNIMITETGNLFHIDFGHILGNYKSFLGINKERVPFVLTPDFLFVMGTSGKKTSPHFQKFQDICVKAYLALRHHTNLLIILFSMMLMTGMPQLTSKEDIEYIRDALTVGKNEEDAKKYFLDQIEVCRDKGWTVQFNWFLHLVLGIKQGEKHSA
T4 sequence (Q06187 whole entry): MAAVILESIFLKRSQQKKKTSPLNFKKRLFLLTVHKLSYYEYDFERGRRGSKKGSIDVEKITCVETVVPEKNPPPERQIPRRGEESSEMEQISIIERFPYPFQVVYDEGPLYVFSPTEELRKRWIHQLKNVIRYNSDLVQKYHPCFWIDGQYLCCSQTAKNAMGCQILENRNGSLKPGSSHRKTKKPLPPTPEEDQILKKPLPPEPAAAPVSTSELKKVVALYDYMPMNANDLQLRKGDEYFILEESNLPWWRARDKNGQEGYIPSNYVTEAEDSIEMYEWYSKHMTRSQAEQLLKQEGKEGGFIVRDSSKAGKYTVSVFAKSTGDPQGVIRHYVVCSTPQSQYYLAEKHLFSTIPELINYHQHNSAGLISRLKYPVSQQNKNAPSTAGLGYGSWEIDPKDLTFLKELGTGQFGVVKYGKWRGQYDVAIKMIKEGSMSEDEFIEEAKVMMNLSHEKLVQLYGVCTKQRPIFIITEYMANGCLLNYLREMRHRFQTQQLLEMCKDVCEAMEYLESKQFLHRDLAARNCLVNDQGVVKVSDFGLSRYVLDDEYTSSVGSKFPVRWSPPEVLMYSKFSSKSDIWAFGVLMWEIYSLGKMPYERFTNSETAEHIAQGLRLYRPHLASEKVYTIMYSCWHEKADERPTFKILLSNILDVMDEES
T3 sequence (Q06187 whole entry C481S): as the sequence (Q06187 whole entry) above, with C481S counted along it

With `C=CC(=O)N1CCC[C@@H](n2nc(-c3ccc(Oc4ccccc4)cc3)c3c(N)ncnc32)C1` [Ibrutinib], the 50% inhibitory concentration (IC50) in [1] (read-out: IC50, JeKo-1 BTK C481S) is 38 µM; in [1] (read-out: IC50, anti-proliferative activity, JeKo-1 BTK C481S) it was 38.4 µM; in [3], 2.44 µM; in assay [5] (read-out: IC50, Mino BTK C481S) it was 6 µM; in [5] (read-out: IC50, anti-proliferative activity, Mino BTK C481S), 6.36 µM; in assay [6] it was 24.8 µM. Moreover, the “BTK phosphorylation after inhibitor wash out” value in assay [2] was “retained inhibition of BTK phosphorylation”. The entries for the “apoptosis (Annexin V and propidium incorporation)” value in assay [4] and in [8] were “no significant effect” and “mild effect”, respectively. For the same molecule, the “median progression free survival” value in [7] is ~ 14 months. In [7], the overall response rate is reported as 68%. The “patients reaching a complete response” value in assay [7] is 21%.

For the molecule `Cc1sc2c(c1C)C(c1ccc(Cl)cc1)=N[C@@H](CC(=O)OC(C)(C)C)c1nnc(C)n1-2` [JQ1], the half-inhibitory concentration (IC50) in assay [9], in assay [10] and in [13] was over 50 µM throughout. In assay [11], the “IC50, BTK C481S” value was “no activity”. For the same molecule, the “IC50, BTK WT” value in assay [12] is “no activity”.

Regarding `CN[C@@H]1C[C@H]2O[C@@](C)([C@@H]1OC)n1c3ccccc3c3c4c(c5c6ccccc6n2c5c31)C(=O)NC4` [Staurosporine], in [9], the “IC50, PI3Kδ” value is “no activity”. Moreover, the “IC50, PI3Kα” value in assay [10] is listed as “no activity”. In [13], the “IC50, PI3Kγ” value is on record as “no activity”.

With `Cc1c(-c2ccc(C(N)=O)c3[nH]c4cc(C(C)(C)O)ccc4c23)cccc1-n1cnc2ccccc2c1=O` [BMS-935177], the “BTK phosphorylation after inhibitor wash out” value in assay [2] was “regained BTK phosphorylation”.

As a reminder, the IC50 is the concentration needed to halve the response being measured.
